These results are taken from US20160355530A1, “HEPATITIS C INHIBITORS AND USES THEREOF” (AbbVie Inc., priority 2010, published 2016).

The IC50 is the point on the concentration scale where inhibition reaches its midpoint. Usually EC50 stands for the concentration giving half of the maximal effect.

For assay [1], the target named is T1, HCV NS5B polymerase 1b BK strain (Hepatitis C virus genotype 1b, UniProt P26663).
T1 construct: six-histidine tag; made in house; host or cells: E. coli
In words: HCV NS5B polymerase enzymatic inhibition assay, strain 1b BK. Type of assay: biochemical. Summed up:
(§1)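 Recombinant NS5B (residues 1–570, His-tagged, E. coli-expressed) copied 5 nM of a 2.1 kb HCV 1b negative-strand 3′-end RNA template with 20 μM CTP, 20 μM ATP and 0.284 μM [3H]UTP for 3 h at 30 °C. Spermine-precipitated RNA was filter-captured and counted, and IC50 was fitted by nonlinear regression.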

Assay [2] addresses T2, HCV NS5B polymerase 1a-H77 (Hepatitis C virus genotype 1a, UniProt P27958).
T2 construct: six-histidine tag; made in house; host or cells: E. coli
In words: biochemical. Also noted: species or system HCV genotype 1a. In a few lines:
as §1

Assay [3] concerns HCV NS5B polymerase 1a-H77-C316Y. Put plainly: biochemical. Also noted: species or system HCV genotype 1a. To be noted: ratio of enzyme IC50s, 1a H77-C316Y / 1a H77. In a few lines:
as §1

Assay [4] addresses T3, HCV NS5B polymerase 1a-H77-C316Y (Hepatitis C virus genotype 1a, UniProt P27958, C2736Y).
T3 construct: six-histidine tag; made in house; host or cells: E. coli
Put plainly: biochemical. Also on record: species or system HCV genotype 1a. Summed up: as §1

In assay [5] the test system is HCV 1a-H77 subgenomic replicon. Put plainly: microbe, parasite or virus in culture. Type of assay: cell-based, HCV genotype 1a. As to conditions: Hepatitis C virus, stable replicon. In general terms: A replicon is a self-replicating genome or part of one, used to study replication in cells.
Assay [6] concerns HCV 1b-BB7 subgenomic replicon. In words: microbe, parasite or virus in culture. Type of assay: cell-based, HCV genotype 1b. To be noted: Hepatitis C virus, stable replicon.
[7] abbreviates: 5% FBS, absence of human plasma, read-out: Stable Replicon 1a H77 5% FBS EC50.
Where [8] appears, read: strain 1a H77, 5% FBS + 40% human plasma, read-out: 1a H77 5% FBS + 40% Human Plasma EC50.
Where [9] appears, read: strain 1a H77, 5% FBS, read-out: 1a H77 5% FBS EC50.
Setting [10] is: strain 1b BB7, 5% FBS + 40% human plasma, read-out: 1b BB7 5% FBS + 40% Human Plasma EC50.
[11] abbreviates: strain 1b BB7, 5% FBS, read-out: 1b BB7 5% FBS EC50.
[12] abbreviates: enzyme, strain 1b BK, read-out: HCV Polymerase Strain 1b BK IC50.
Setting [13] is: enzyme, strain 1a H77, read-out: HCV Polymerase Strain 1a H77 IC50.
[14] abbreviates: strain 1a H77, 5% FBS, no human plasma, read-out: 1a H77 5% FBS EC50.
Setting [15] is: strain 1b BB7, 5% FBS, no human plasma, read-out: 1b BB7 5% FBS EC50.

Where two headings read alike, the source gives them in different places.

T1 sequence (P26663 2420-2989): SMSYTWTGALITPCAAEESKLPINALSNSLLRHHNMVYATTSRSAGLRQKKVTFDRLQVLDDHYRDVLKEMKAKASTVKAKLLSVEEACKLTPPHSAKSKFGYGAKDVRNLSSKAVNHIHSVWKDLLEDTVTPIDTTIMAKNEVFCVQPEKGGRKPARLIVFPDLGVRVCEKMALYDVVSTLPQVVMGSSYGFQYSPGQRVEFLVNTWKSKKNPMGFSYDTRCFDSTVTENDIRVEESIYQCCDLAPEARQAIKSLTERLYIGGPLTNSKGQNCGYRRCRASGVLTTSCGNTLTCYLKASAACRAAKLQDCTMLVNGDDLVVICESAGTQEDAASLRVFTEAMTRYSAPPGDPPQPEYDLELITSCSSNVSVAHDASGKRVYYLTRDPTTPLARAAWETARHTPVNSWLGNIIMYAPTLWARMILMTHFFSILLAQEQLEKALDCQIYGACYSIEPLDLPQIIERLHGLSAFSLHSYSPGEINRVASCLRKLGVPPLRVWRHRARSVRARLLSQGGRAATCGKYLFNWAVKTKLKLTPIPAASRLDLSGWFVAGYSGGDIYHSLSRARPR
T3 sequence (P27958 2421-2990 C2736Y): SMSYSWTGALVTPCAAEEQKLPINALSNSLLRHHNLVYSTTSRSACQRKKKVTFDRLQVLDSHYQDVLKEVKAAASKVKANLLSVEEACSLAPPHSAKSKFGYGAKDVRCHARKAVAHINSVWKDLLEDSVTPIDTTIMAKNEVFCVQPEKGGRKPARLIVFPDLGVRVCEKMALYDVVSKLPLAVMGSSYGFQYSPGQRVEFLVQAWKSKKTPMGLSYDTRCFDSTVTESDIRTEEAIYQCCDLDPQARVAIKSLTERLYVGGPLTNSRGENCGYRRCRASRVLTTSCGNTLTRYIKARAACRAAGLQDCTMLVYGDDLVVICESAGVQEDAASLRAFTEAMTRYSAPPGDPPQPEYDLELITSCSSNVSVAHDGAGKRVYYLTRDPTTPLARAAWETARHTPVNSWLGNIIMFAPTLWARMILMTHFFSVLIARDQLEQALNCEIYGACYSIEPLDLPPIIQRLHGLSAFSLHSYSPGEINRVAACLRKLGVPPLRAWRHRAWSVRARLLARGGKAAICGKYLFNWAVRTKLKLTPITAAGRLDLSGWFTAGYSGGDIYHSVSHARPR
T2 sequence (P27958 2421-2990): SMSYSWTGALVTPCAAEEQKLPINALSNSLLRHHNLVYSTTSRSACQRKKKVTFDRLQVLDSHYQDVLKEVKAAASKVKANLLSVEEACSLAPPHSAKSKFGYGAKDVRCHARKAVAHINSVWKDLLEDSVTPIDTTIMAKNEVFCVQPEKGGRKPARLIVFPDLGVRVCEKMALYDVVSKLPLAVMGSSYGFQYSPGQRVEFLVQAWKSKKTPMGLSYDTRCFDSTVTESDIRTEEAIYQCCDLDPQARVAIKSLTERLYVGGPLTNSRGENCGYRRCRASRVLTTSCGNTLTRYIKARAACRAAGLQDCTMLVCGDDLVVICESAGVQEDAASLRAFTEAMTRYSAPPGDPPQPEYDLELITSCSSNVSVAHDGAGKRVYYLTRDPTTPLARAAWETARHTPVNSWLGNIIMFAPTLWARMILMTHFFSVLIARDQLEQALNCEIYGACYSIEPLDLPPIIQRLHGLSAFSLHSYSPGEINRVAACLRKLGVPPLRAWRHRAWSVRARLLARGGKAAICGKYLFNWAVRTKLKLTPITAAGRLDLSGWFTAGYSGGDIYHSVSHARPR

In the case of `CS(=O)(=O)N(Cc1cc(O)no1)c1cc2oc(-c3ccc(F)cc3)c(-c3ncc[nH]3)c2cc1C1CC1` [Example 190, N-[5-cyclopropyl-2-(4-fluorophenyl)-3-(1H-imidazol-2-yl)-1-benzofuran-6-yl]-N-[(3-hydroxy-1,2-oxazol-5-yl)methyl]methanesulfonamide], the IC50 in assay [1] was 26 nM; in assay [2], 4.5 nM; in assay [4], 500 nM. Moreover, the “C316Y/1a Fold Resistance” value in assay [3] was determined as 112 fold. Also, the EC50 stood at 263 nM in assay [5] (setting [7]); 3460 nM in assay [5] (setting [8]); 263 nM in assay [5] (setting [9]); 1370 nM in assay [6] (setting [10]); 116 nM in assay [6] (setting [11]).
As to `CS(=O)(=O)N(CCCN)c1cc2oc(-c3ccc(F)cc3)c(-c3ncc[nH]3)c2cc1C1CC1` [Example 112, N-(3-aminopropyl)-N-[5-cyclopropyl-2-(4-fluorophenyl)-3-(1H-imidazol-2-yl)-1-benzofuran-6-yl]methanesulfonamide], the IC50 in assay [1] (setting [12]) is 51 nM; in assay [2] (setting [13]), 10.6 nM; in assay [4], 868 nM. In addition, the “C316Y/1a Fold Resistance” value in assay [3] was 82 fold. Besides, the EC50 amounted to 262 nM in assay [5] (setting [7]); 1030 nM in assay [5] (setting [8]); 262 nM in assay [5] (setting [14]); 262 nM in assay [5] (setting [9]); 101 nM in assay [6] (setting [10]); 34 nM in assay [6] (setting [15]). For the same compound, the EC50 in assay [6] (setting [11]) stood at 34 nM.
Turning to `COC(=O)CCCN(c1cc2oc(-c3ccc(F)cc3)c(-c3ncc[nH]3)c2cc1C1CC1)S(C)(=O)=O` [Example 68, methyl 4-{[5-cyclopropyl-2-(4-fluorophenyl)-3-(1H-imidazol-2-yl)-1-benzofuran-6-yl](methylsulfonyl)amino}butanoate], the IC50 is 20 nM in assay [1] (setting [12]), 5.9 nM in assay [2] (setting [13]) and 103 nM in assay [4]. For the same compound, the “C316Y/1a Fold Resistance” value in assay [3] turned out to be 17 fold. Also, the EC50 was 57 nM in assay [5] (setting [7]); 1210 nM in assay [5] (setting [8]); 57 nM in assay [5] (setting [14]); 57 nM in assay [5] (setting [9]); 496 nM in assay [6] (setting [10]); 62 nM in assay [6] (setting [15]). Further, in assay [6] (setting [11]), the EC50 was found to be 62 nM.
With `COc1ccc(CN(c2cc3oc(-c4ccc(F)cc4)c(-c4ncc[nH]4)c3cc2OC(C)C)S(C)(=O)=O)cc1` [Example 170, N-[2-(4-fluorophenyl)-3-(1H-imidazol-2-yl)-5-isopropoxy-1-benzofuran-6-yl]-N-(4-methoxybenzyl)methanesulfonamide], the IC50 in assay [1] (setting [12]) was determined as 338 nM; in assay [2] (setting [13]) it was 36 nM; in assay [4] it was 20000 nM. The “C316Y/1a Fold Resistance” value in assay [3] worked out at 556 fold. The EC50 in assay [5] (setting [7]) is 540 nM; in assay [5] (setting [14]), 540 nM; in assay [5] (setting [9]), 540 nM; in assay [6] (setting [15]), 121 nM; in assay [6] (setting [11]) it was 121 nM.
As for `CCOC(=O)CN(c1cc2oc(-c3ccc(F)cc3)c(-c3ncc[nH]3)c2cc1C1CC1)S(C)(=O)=O` [Example 33, ethyl N-[5-cyclopropyl-2-(4-fluorophenyl)-3-(1H-imidazol-2-yl)-1-benzofuran-6-yl]-N-(methylsulfonyl)glycinate], the IC50 came out at 152 nM in assay [1] (setting [12]), 10.5 nM in assay [2] (setting [13]) and 1900 nM in assay [4]. The “C316Y/1a Fold Resistance” value in assay [3] is on record as 181 fold. For the same compound, the EC50 in assay [5] (setting [7]) was 163 nM; in assay [5] (setting [8]), 8840 nM; in assay [5] (setting [14]), 163 nM; in assay [5] (setting [9]), 163 nM; in assay [6] (setting [10]), 4810 nM; in assay [6] (setting [15]), 200 nM. For the same compound, the concentration giving a half-maximal response (EC50) in assay [6] (setting [11]) amounted to 200 nM.
As for `CC(O)CN(c1cc2oc(-c3ccc(F)cc3)c(-c3ncc[nH]3)c2cc1C1CC1)S(C)(=O)=O` (stereo not shown) [Example 98, N-[5-cyclopropyl-2-(4-fluorophenyl)-3-(1H-imidazol-2-yl)-1-benzofuran-6-yl]-N-(2-hydroxypropyl)methanesulfonamide], the IC50 in assay [1] (setting [12]) was 240 nM; in assay [2] (setting [13]), 24.5 nM; in assay [4], 3200 nM. In assay [3], the “C316Y/1a Fold Resistance” value is 131 fold. Also, the concentration for a half-maximal effect (EC50) in assay [5] (setting [7]) is 158 nM; in assay [5] (setting [8]), 1630 nM; in assay [5] (setting [14]), 158 nM; in assay [5] (setting [9]), 158 nM; in assay [6] (setting [10]), 2060 nM; in assay [6] (setting [15]) it was 136 nM. The half-maximal effective concentration (EC50) in assay [6] (setting [11]) was 136 nM.
Regarding `CC(C)CCCN(c1cc2oc(-c3ccc(F)cc3)c(-c3ncc[nH]3)c2cc1C1CC1)S(C)(=O)=O` [Example 40, N-[5-cyclopropyl-2-(4-fluorophenyl)-3-(1H-imidazol-2-yl)-1-benzofuran-6-yl]-N-(4-methylpentyl)methanesulfonamide], the IC50 in assay [1] (setting [12]) amounted to 19 nM; in assay [2] (setting [13]), 6.5 nM; in assay [4] it was 70 nM. Further, the “C316Y/1a Fold Resistance” value in assay [3] is on record as 11 fold. In addition, the EC50 was determined as 23 nM in assay [5] (setting [7]); 525 nM in assay [5] (setting [8]); 23 nM in assay [5] (setting [14]); 23 nM in assay [5] (setting [9]); 445 nM in assay [6] (setting [10]); 23 nM in assay [6] (setting [15]). Moreover, the EC50 in assay [6] (setting [11]) came out at 23 nM.
For `COCCN(c1cc2oc(-c3ccc(F)cc3)c(-c3ncc[nH]3)c2cc1C1CC1)S(C)(=O)=O` [Example 47, N-[5-cyclopropyl-2-(4-fluorophenyl)-3-(1H-imidazol-2-yl)-1-benzofuran-6-yl]-N-(2-methoxyethyl)methanesulfonamide], the IC50 in assay [1] (setting [12]) was found to be 41 nM; in assay [2] (setting [13]), 7.9 nM; in assay [4] it was 1000 nM. In addition, in assay [3], the “C316Y/1a Fold Resistance” value worked out at 126 fold. Besides, the EC50 in assay [5] (setting [7]) is 81.7 nM; in assay [5] (setting [8]), 771 nM; in assay [5] (setting [14]), 81.7 nM; in assay [5] (setting [9]), 81.7 nM; in assay [6] (setting [10]), 148 nM; in assay [6] (setting [15]), 25.6 nM. For the same compound, in assay [6] (setting [11]), the EC50 was 25.6 nM.
Regarding `CS(=O)(=O)N(Cc1ccccc1)c1ccc2c(-c3ncc[nH]3)c(-c3ccccc3)oc2c1` [Example 21, N-benzyl-N-[3-(1H-imidazol-2-yl)-2-phenyl-1-benzofuran-6-yl]methanesulfonamide], the IC50 in assay [1] (setting [12]) was found to be 99 nM; in assay [2] (setting [13]), 47.6 nM; in assay [4], 90 nM. The “C316Y/1a Fold Resistance” value in assay [3] is given as 2 fold. The concentration for a half-maximal effect (EC50) in assay [5] (setting [7]) stood at 3440 nM; in assay [5] (setting [14]) it was 3440 nM; in assay [5] (setting [9]), 3440 nM; in assay [6] (setting [10]), 10000 nM; in assay [6] (setting [15]), 593 nM; in assay [6] (setting [11]), 593 nM.
Turning to `CS(=O)(=O)N(CCOc1ccccc1)c1cc2oc(-c3ccc(F)cc3)c(-c3ncc[nH]3)c2cc1C1CC1` [Example 43, N-[5-cyclopropyl-2-(4-fluorophenyl)-3-(1H-imidazol-2-yl)-1-benzofuran-6-yl]-N-(2-phenoxyethyl)methanesulfonamide], the IC50 in assay [1] (setting [12]) turned out to be 25 nM; in assay [2] (setting [13]), 6.5 nM; in assay [4], 1000 nM. In addition, the “C316Y/1a Fold Resistance” value in assay [3] worked out at 154 fold. Also, the EC50 in assay [5] (setting [7]) turned out to be 269 nM; in assay [5] (setting [8]), 5210 nM; in assay [5] (setting [14]), 269 nM; in assay [5] (setting [9]), 269 nM; in assay [6] (setting [10]), 616 nM; in assay [6] (setting [15]) it was 80 nM. Also, in assay [6] (setting [11]), the EC50 was determined as 80 nM.
As to `CS(=O)(=O)N(CC1CCCO1)c1cc2oc(-c3ccc(F)cc3)c(-c3ncc[nH]3)c2cc1C1CC1` (stereo not shown) [Example 75, N-[5-cyclopropyl-2-(4-fluorophenyl)-3-(1H-imidazol-2-yl)-1-benzofuran-6-yl]-N-(tetrahydrofuran-2-ylmethyl)methanesulfonamide], the results for the IC50 in assay [1] (setting [12]), in assay [2] (setting [13]) and in assay [4] were 60 nM, 6.5 nM and 1600 nM, respectively. Also, the “C316Y/1a Fold Resistance” value in assay [3] is reported as 247 fold. For the same compound, the EC50 came to 69.6 nM in assay [5] (setting [7]); 1080 nM in assay [5] (setting [8]); 69.6 nM in assay [5] (setting [14]); 69.6 nM in assay [5] (setting [9]); 1160 nM in assay [6] (setting [10]); 45 nM in assay [6] (setting [15]). The concentration giving a half-maximal response (EC50) in assay [6] (setting [11]) was found to be 45 nM.
For `CS(=O)(=O)N(CCCc1ccccc1)c1cc2oc(-c3ccc(F)cc3)c(-c3ncc[nH]3)c2cc1C1CC1` [Example 41, N-[5-cyclopropyl-2-(4-fluorophenyl)-3-(1H-imidazol-2-yl)-1-benzofuran-6-yl]-N-(3-phenylpropyl)methanesulfonamide], the figures for the half-inhibitory concentration (IC50) in assay [1] (setting [12]), in assay [2] (setting [13]) and in assay [4] were 16 nM, 5 nM and 58 nM, respectively. In assay [3], the “C316Y/1a Fold Resistance” value came out at 12 fold. Also, the EC50 stood at 73 nM in assay [5] (setting [7]); 911 nM in assay [5] (setting [8]); 73 nM in assay [5] (setting [14]); 73 nM in assay [5] (setting [9]); 364 nM in assay [6] (setting [10]); 40 nM in assay [6] (setting [15]). Besides, in assay [6] (setting [11]), the EC50 stood at 40 nM.
